Read-outs that look alike come from different tables or passages of the source. Each block holds one compound with its values, some of them ahead of it.
What was measured:
[1] = DAP PCDS direct diffusion (SPME-GC/MS); assay type: physicochemical; settings: DAP/PCDS diffuser, 40 mL, 6 capillaries
Method: Three diffusers, each containing 40 mL of solution and 6 capillaries, were prepared and diffused. The first points were measured at T=1d, T=2, and T=3d, then every Monday, Wednesday and Friday of each study week until the diffusers no longer contained any solution. To measure the pheromone released into the air at each study time, the diffuser is first weighed (with the sticks) to measure mass loss, then placed in an enclosed area (in this case, an upside-down aquarium) containing a SPME fiber, as shown in FIG. 24.
The fiber is left to diffuse above the diffuser for 2 hours (a time determined in a previous method development as the optimum time for molecules to adsorb to the phase), then analyzed using the gas chromatography/mass spectrometry (GC/MS) technique.
Three diffusers were studied for greater accuracy. The chromatograms obtained are reprocessed using GC/MS Solution software.
For each chromatographic peak, the area is recorded using GC/MS Solution software, then entered into an Excel spreadsheet. Diffusion curves giving the area of the chromatographic peak corresponding to each active ingredient as a function of time are then plotted.
Analyses were carried out by gas chromatography/mass spectrometry (GC/MS). The instrument was a Shimadzu GCMS QP2010SE® equipped with an AOC 6000® autosampler. Separation was carried out on a ZB-FFAP® column (30 m×0.25 mm×0.25 μm, stationary phase: nitroterephthalic acid-modified polyethylene glycol) supplied by Phenomenex. The furnace temperature was initially set at 80° C. for 1 minute, then increased at 10° C./min to 240° C. and maintained at this temperature for 2 minutes. The carrier gas was helium at a flow rate of 1 mL/min. Analysis time is 19 minutes.
The injector is a split/splitless injector used in split mode (temperature: 250° C., split: 50:1). The SPME fiber was injected directly into the injector and left to desorb for 15 minutes.
The separated molecules were detected using a mass spectrometer equipped with an electron impact source (temperature: 200° C.). The analyzer is a simple quadrupole. The interface temperature is 250° C. Data were acquired in FASST mode (Fast automated SCAN/SIM type), i.e. part of the analysis was performed by scanning all ions (SCAN) and part by selecting specific ions (SIM). Target molecules were thus analyzed using ion selection.

[2] = Ratios of molecules diffused through the sticks over time; assay type: physicochemical
Method: Furthermore, as small molecules diffuse more, it happens that they lose intensity over the course of the study, so the ratios are different 24 hours after immersing the sticks in the liquid and 21 days later. Here are the ratios for each pheromone studied at the start of the study and at the end.

[3] = Direct diffusion of diffuser blocks (SPME GC/MS); assay type: physicochemical; settings: despecified pheromone 2%, 4 weeks
Method: Analyses were carried out using gas chromatography (GC) coupled to a mass spectrometer (MS) detector, a technique commonly referred to as GCMS. The molecules of interest were extracted using the Solid Phase Micro-Extraction (SPME) technique. The instrument used was the following: QP2010SE® from Shimadzu (See FIG. 4).
AOC 6000® automatic feeder • Extraction/SPME fiber: polyacrylate/Fused silica (85 μm), 23 Ga. • Adsorption time: 2 hours (exposure time of fiber above block) (See FIG. 4) • Desorption time: 30 minutes (fiber exposure time in injector) • Fiber-block distance: 2 cm • Injection: split/splitless injector • Temperature: 250° C., split 50 mode. • Separation: ZB-FFAP® column (Phénomenex), length: 30 m, diameter: 250 μm, film thickness: […]
• Carrier gas: Helium (He) • Analysis time: 18 min (not including time to return to equilibrium between each analysis injection • Detection: mass spectrometer with electron impact source/analyzer: quadrupole. • Source temperature: 200° C. • Interface temperature: 250° C. • Scan m/z 50 to m/z 500 • SIM with ions 55, 66 and 74.
Analyses were carried out in triplicate to verify reproducibility of results.
With the SPME method, results are evaluated by measuring the chromatographic peak area. The data have been plotted on diffusion curve (see FIGS. 5 and 6).

[4] = Indirect assay of rod diffuser solution (GC/FID); assay type: physicochemical; settings: stick diffuser solution, despecified pheromone
Method: Solution integrity was checked at each analysis time. Before each indirect assay, the vial was weighed to visualize mass loss over time. Each vial contained six sticks. • Specifications: the solution must lose mass over time. • Result: Compliant—See FIG. 9 This is the same analytical method as for the diffuser block study, only the sample preparation differs. 1.25 g of solution were weighed into a 25 mL volumetric flask and the volume made up to the mark with acetone. The resulting solution is transferred to a 1.5 mL GC vial for analysis. This is exactly the same calibration range as for the diffuser block study.

[5] = Pheromone migrated to the stick tips (GC/FID); assay type: physicochemical; settings: on stick tips, despecified pheromone
Method: In the course of this study, we also measured the amount of pheromone migrating on the sticks, to check that the pheromone had migrated to the top of the sticks, helping it to diffuse into the air. To do this, the test is the same as for the diffuser blocks: 2.5 g of stick tips are cut off and placed in a 50 mL flask, which is then placed in an ultrasonic bath for one hour. The resulting solution is filtered (to avoid injecting particles into the instrument) and placed in a chromatographic vial for analysis.

[6] = Indirect assay of diffuser blocks (GC/FID, pheromone remaining in the block); assay type: physicochemical; settings: despecified pheromone
Method: Analyses were carried out using the gas chromatography (GC) technique with a flame ionization detector (FID), commonly known as GC/FID. The instrument used was the Shimadzu GC2025.® • Injection: Quantity injected: 1 μL, split 50:1, temperature: 230° C. • Separation: DB-WAX column (Agilent), length: 20 m, diameter: 180 μm, film thickness: […] • Carrier gas: Helium (He) • Analysis time: 11.50 min (not including time to return to equilibrium between each analysis) injection). • Detection: FID, temperature: 250° C., flow rates: H2: 40 mL/min, Air: 400 mL/min, Nitrogen (make-up): 30 mL/min. To obtain a representative sample, “cores” were drilled at various positions in the block and then collected. 2.5 g of gel were weighed into a 50 mL volumetric flask and the volume made up to the beginning of the neck of the flask with acetone. The flask was then placed in an ultrasonic bath for one hour until the block was dissolved (a white precipitate was obtained), then acetone was added to the mark. An aliquot of this solution was placed in a syringe fitted with a syringe filter and filtered to obtain a translucent solution. The resulting solution was transferred to a 1.5 mL GC vial for analysis. The assays were carried out using a calibration range.

[7] = cited from earlier work
[8] = F3 sticks device, direct diffusion, 40 mL and four sticks (SPME GC/MS); assay type: physicochemical; settings: four sticks
Method: Three devices containing 40 mL of F3 feline facial pheromone product and four rattan sticks were prepared and left on diffusion. Every Monday, Wednesday and Friday, the diffusion of the pheromone in air was checked by analysis by gas chromatography coupled with mass spectrometer (GC/MS) and SPME (solid phase microextraction) until there is no liquid left (about 22 days).
To that purpose, the studied device was taken and placed into a closed space (in our case an aquarium turned over) containing the SPME fiber as shown on FIG. 24.
The SPME fiber was left for two hours to give the time for the molecules to adsorb on the fiber, then the fiber was injected into the GC/MS instrument for analysis.
Analysis were carried out using gas chromatography with mass spectrometer. The instrument was a GCMS QP2010SE® from Shimadzu with an AOC6000® Autosampler. The separation was performed on a ZB-5 MS® column (30 m×0.25 mm×0.25 μm, stationary phase: 95% Dimethylpolysiloxane, 5% Phenyl-Arylene) from Phenomenex. The GC oven temperature was initially held at 100° C. for 1 minute then increased at a pace of 10° C./min to 120° C. and left at this temperature for 3 minutes. Finally, the oven temperature was increased at a pace of 10° C./min to 240° C. and left at this temperature for 10 minutes. The carrier gas was helium at 1 mL/min. Analysis were performed in split mode using a split/splitless injector (Temperature: 250° C., split: 1:20). The SPME fiber was directly injected into the injector and left for 30 minutes. Separated molecules were detected using a mass spectrometer which was operated in electron impact ionization (EI) in both full scan (FS) and single ion monitoring (SIM) modes, so called FASST (Fast Automated SCAN/SIM type) mode. The interface temperature was set at 300° C. and electron impact source temperature at 250° C. The analyser was a quadrupole.
For the measurement of the relative quantity of active ingredient spreading in air, the area of the chromatographic peak corresponding to the compound was measured using Shimadzu GCMS-Solution software.

[9] = F3 block stability study in sodium stearate aqueous gel (GC-MS); assay type: physicochemical; settings: after 3 months
Method: Aqueous sodium stearate gel is a method used by SIGNS for several of the pheromones it markets (pork, poultry, rabbit). The sodium stearate matrix is cast at high temperature (60° C.) and contains 2% pheromone. In this study, matrix samples are taken by coring, and the active ingredients are extracted by apolar solvent, using the SIGNS-validated quality control method. Extracts are analyzed by GC-MS. […] Given this observation, formula F3 cannot be used in blocks for passive diffusion, so a change of galenic formulation is necessary.

[10] = F3 migration along the stick (top 1 cm, GC/MS); assay type: physicochemical; settings: F3, five sticks
Method: Three devices containing 40 mL of F3 feline facial pheromone product and five […] sticks were prepared and left on diffusion. A t=1 day, T=3 days, T=10 days, T=15 days and T=22 days after preparation of the devices, one stick was taken on each device and 1 cm of the top of each stick was cut, then extracted with acetone 1 h in an ultrasonic bath and analysed by gas chromatography coupled with mass spectrometry (GC/MS). The same analytical parameters were used for the study C with a liquid injection (injected quantity: […]) Blank analysis and matrix blank analysis were also performed.

[11] = DAP, 24 h after immersion of sticks
[12] = DAP, 21 days after immersion of sticks (empty tank)
[13] = F3P, 24 h after immersion of the sticks
[14] = F3P, 21 days after immersion of sticks (empty tank)

direct diffusion over time [1]: diffuses the least | ratio of molecules diffused through the sticks [2, 11]: 0.5 % (w/w) | ratio of molecules diffused through the sticks [2, 12]: 1 % (w/w) | ratio of molecules diffused through the sticks [2, 13]: 0.1 % (w/w) | ratio of molecules diffused through the sticks [2, 14]: 0.1 % (w/w)
SMILES: CCCCCCCCCCCCCCCCCC(=O)OC [methyl stearate, methyl octadecanoate]

direct diffusion from the diffuser block [3]: lowest intensity | % of the active ingredient in the pheromone ([4]; day 0): 30.0% | % of the active ingredient in the pheromone ([4]; day 7): 30.0% | % of the active ingredient in the pheromone ([4]; day 14): 30.1% | % of the active ingredient in the pheromone ([4]; day 21): 31.5% | % of the active ingredient in the pheromone ([5]; day 7): 29.7% | % of the active ingredient in the pheromone ([5]; day 14): 30.1% | % of the active ingredient in the pheromone ([5]; day 21): 28.6% | direct diffusion over time [1]: slight increase over time | % of the active ingredient in the pheromone ([6]; day 0): 30.4% | % of the active ingredient in the pheromone ([6]; day 7): 30.2% | % of the active ingredient in the pheromone ([6]; day 14): 30.4% | % of the active ingredient in the pheromone ([6]; day 21): 30.5% | % of the active ingredient in the pheromone ([6]; day 28): 30.5% | ratio of molecules diffused through the sticks [2, 11]: 3 % (w/w) | ratio of molecules diffused through the sticks [2, 12]: 4 % (w/w) | ratio of molecules diffused through the sticks ([2]; Despecified pheromone (Core), 5 days after immersion of the sticks): 2 % (w/w) | ratio of molecules diffused through the sticks ([2]; Despecified pheromone (Core), 21 days after immersion of sticks (empty tank)): 4 % (w/w) | ratio of molecules diffused through the sticks [2, 13]: 0.3 % (w/w) | ratio of molecules diffused through the sticks [2, 14]: 0.5 % (w/w)
SMILES: CCCCC/C=C\C/C=C\CCCCCCCC(=O)OC [methyl linoleate, methyl (9Z,12Z)-octadeca-9,12-dienoate]

direct diffusion over time [1]: slight increase over time | ratio of molecules diffused through the sticks [2, 11]: 7 % (w/w) | ratio of molecules diffused through the sticks [2, 12]: 9 % (w/w)
SMILES: CCCCCCCCCCCCCCC(=O)OC [methyl pentadecanoate]

The next lines start with the compound.

SMILES: COC(C)(C)CCO [3-methoxy-3-methyl-1-butanol]
vapor pressure ([7]; at 20° C.): 0.07 kPa | vapor pressure ([7]; at 25° C.): 0.12 kPa

SMILES: COC(=O)CCCCCCCC(=O)OC [dimethyl azelate, dimethyl nonanedioate]
direct diffusion over time [8]: constant diffusion | ratio of molecules diffused through the sticks ([2]; F3, 24 h after immersion of sticks): 25 % (w/w) | ratio of molecules diffused through the sticks ([2]; F3, 21 days after immersion of sticks (empty tank)): 43 % (w/w) | ratio of molecules diffused through the sticks [2, 13]: 18 % (w/w) | ratio of molecules diffused through the sticks [2, 14]: 31.3 % (w/w) | stability in the block [9]: disappeared completely | relative quantity on the top of the stick [10]: less present
